Test results: PMC9532703, “A novel small molecule RK-019 inhibits FGFR2-amplification gastric cancer cell proliferation and induces apoptosis in vitro and in vivo” (Frontiers in Pharmacology, 2022)

What was measured:
KATO III cells [1] = assay: Cell cycle analysis by flow cytometry (PI staining); format: cell-based; conditions: 100 nM, 24 h
Method: Cell cycle and apoptosis assay were both measured by flow cytometry (FCM). The data were analyzed by the NovoExpress software (v1.4.0, Agilent, Santa Clara, CA, United States). For cell cycle assay, the cells were treated by different concentrations of RK-019 for 24 h, then were harvested and washed twice with cold phosphate buffered solution (PBS), followed by fixed with 75% ethanol overnight. Before test, the cells were washed twice with cold PBS and stained with PI stanning solution using cell cycle detecting kit (KGA512, KeyGEN, Nanjing, China), and then measured by FCM. For apoptosis assay, the cells were harvested after treated with different concentrations of RK-019 for 24 h, and stained with a PE Annexin V Apoptosis Detection Kit according to the manufacturer’s protocol followed by detected using FCM.

SNU-16 cells = assay: Cell viability assay (MTT); format: cell-based; conditions: Homo sapiens; SNU-16, mean ± SD
Method: (§1) For suspension and mixed suspension adherent cells, the cells were seeded in 96-well plate with different cell density, 0.5×10^4 per well for 96 h treatment, 1×10^4 per well for 72 h treatment, 2×10^4 per well for 48 h treatment, and 5×10^4 per well for 24 h treatment. Different doses of RK-019 were treated as soon as the cell seeded in 96-well plates. For adherent cells, the cells were seeded in a 96-well plate with 3×10^3 per well and cultured overnight followed by administrated different doses of RK-019. After indicated time treatment, MTT solution at a final concentration of 0.5 mg/ml was added and incubated 2–4 h at 37°C. Formazan formed by the living cells was dissolved with DMSO and the absorbance was measured using a microplate spectrophotometer (MultiskanFC, ThermoFisher, Waltham, MA, United States) at 570 nm. IC50 value of RK-019 was calculated by the Graphpad Prism software.
(§2) All data were analyzed by the GraphPad Prism 8.4.3 (GraphPad Software, California, United States), and was shown as mean value ±SD or SEM, details will be illustrated in the figure legends. Dose-effect curve analysis (IC50 calculation) was performed by the Graphpad Prism software. […] The statistically significant p values were calculated by student’s t-test or two-way ANOVA and were shown in graphics which were labeled as follows: *p < 0.05; **p < 0.01; ***p < 0.001.

KATO III cells [2] = assay: Cell viability assay (MTT); format: cell-based; conditions: Homo sapiens, mean ± SD
Method: as §1, §2

CSK(h) = molecular target: T1, CSK(h) (Homo sapiens, UniProt P41240); assay: Kinase selectivity panel; format: biochemical; conditions: read-out: Inhibition(%) @ 1 µM RK-019
T1 construct: purchased Eurofins Discovery Services (KinaseProfiler)
T1 sequence (P41240 whole entry): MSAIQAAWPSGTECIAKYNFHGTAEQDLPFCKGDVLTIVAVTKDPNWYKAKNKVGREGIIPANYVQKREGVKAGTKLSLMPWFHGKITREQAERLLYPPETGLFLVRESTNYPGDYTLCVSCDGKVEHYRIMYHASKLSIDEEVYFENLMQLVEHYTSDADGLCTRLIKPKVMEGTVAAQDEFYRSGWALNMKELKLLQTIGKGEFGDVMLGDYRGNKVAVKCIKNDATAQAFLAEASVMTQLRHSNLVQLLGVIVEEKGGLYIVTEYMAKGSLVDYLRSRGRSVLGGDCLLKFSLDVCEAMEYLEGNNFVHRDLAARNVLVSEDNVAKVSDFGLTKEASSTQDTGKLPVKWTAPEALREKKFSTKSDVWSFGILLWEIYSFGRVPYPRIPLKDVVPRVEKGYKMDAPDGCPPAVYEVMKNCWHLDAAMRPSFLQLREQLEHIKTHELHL
Method: (§3) Median-inhibitory concentration (IC50) and inhibition ratio of kinases by RK-019 was assessed by Eurofins Discovery Services (Dundee, United Kingdom) using the ATP-site competition binding assay in vitro. Firstly, gradient concentration of RK-019 against FGFRs, including FGFR1, FGFR2, FGFR3, and FGFR4, were tested. IC50 value was calculate by the GraphPad Prism software (v8.4.3, GraphPad Software, California, United States). Then, to measure the selectivity prolife of RK-019, a panel of 422 recombinant human kinases was screened at a concentration of 1 µM RK-019. Kinase MAP was drawn by webtools from Cell Signaling Technology, Inc. (www.cellsignal.com).

Abl(m) = molecular target: T2, Abl(m) (Mus musculus, UniProt P00520); assay: Kinase selectivity panel; format: biochemical; conditions: read-out: Inhibition(%) @ 1 µM RK-019
T2 construct: purchased Eurofins Discovery Services (KinaseProfiler)
Method: as §3

CDK1/cyclinB(h) = molecular target: T3, CDK1/cyclinB(h) (Homo sapiens, UniProt P06493); assay: Kinase selectivity panel; format: biochemical; conditions: read-out: Inhibition(%) @ 1 µM RK-019
T3 construct: purchased Eurofins Discovery Services (KinaseProfiler)
Method: as §3

CDKL2(h) = molecular target: T4, CDKL2(h) (Homo sapiens, UniProt Q92772); assay: Kinase selectivity panel; format: biochemical; conditions: read-out: Inhibition(%) @ 1 µM RK-019
T4 construct: purchased Eurofins Discovery Services (KinaseProfiler)
Method: as §3

CaMKIß(h) = molecular target: T5, CaMKIß(h) (Homo sapiens, UniProt Q6P2M8); assay: Kinase selectivity panel; format: biochemical; conditions: read-out: Inhibition(%) @ 1 µM RK-019
T5 construct: purchased Eurofins Discovery Services (KinaseProfiler)
T5 sequence (Q6P2M8 whole entry): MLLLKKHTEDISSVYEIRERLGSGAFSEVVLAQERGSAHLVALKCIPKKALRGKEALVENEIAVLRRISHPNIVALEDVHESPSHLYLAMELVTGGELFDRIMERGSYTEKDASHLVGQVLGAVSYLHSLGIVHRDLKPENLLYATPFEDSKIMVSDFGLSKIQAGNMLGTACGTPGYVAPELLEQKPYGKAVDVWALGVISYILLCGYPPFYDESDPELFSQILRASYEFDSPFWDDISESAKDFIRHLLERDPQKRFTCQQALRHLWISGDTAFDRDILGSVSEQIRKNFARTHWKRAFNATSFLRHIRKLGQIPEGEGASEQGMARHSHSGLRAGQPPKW
Method: as §3

PRAK(h) = molecular target: T6, PRAK(h) (Homo sapiens, UniProt Q8IW41); assay: Kinase selectivity panel; format: biochemical; conditions: read-out: Inhibition(%) @ 1 µM RK-019
T6 construct: purchased Eurofins Discovery Services (KinaseProfiler)
T6 sequence (Q8IW41 whole entry): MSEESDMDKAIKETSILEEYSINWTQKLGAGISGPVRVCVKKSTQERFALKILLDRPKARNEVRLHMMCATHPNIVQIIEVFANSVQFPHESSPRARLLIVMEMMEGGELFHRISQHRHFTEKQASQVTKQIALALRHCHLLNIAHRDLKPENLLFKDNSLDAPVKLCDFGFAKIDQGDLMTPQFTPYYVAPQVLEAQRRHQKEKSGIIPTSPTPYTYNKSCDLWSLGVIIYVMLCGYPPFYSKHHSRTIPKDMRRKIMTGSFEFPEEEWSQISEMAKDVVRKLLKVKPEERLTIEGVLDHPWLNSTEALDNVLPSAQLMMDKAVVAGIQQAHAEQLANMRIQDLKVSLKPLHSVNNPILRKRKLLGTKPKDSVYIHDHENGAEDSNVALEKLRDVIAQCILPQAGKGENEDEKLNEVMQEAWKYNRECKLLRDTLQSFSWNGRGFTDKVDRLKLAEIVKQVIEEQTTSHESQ
Method: as §3

Abl (H396P) (h) = molecular target: T7, Abl (H396P) (h) (Homo sapiens, UniProt P00519, H396P); assay: Kinase selectivity panel; format: biochemical; conditions: read-out: Inhibition(%) @ 1 µM RK-019
T7 construct: purchased Eurofins Discovery Services (KinaseProfiler)
Method: as §3

MKK6(h) = molecular target: T8, MKK6(h) (Homo sapiens, UniProt P52564); assay: Kinase selectivity panel; format: biochemical; conditions: read-out: Inhibition(%) @ 1 µM RK-019
T8 construct: purchased Eurofins Discovery Services (KinaseProfiler)
Method: as §3

MSK2(h) = molecular target: T9, MSK2(h) (Homo sapiens, UniProt O75676); assay: Kinase selectivity panel; format: biochemical; conditions: read-out: Inhibition(%) @ 1 µM RK-019
T9 construct: purchased Eurofins Discovery Services (KinaseProfiler)
Method: as §3

TNIK(h) = molecular target: T10, TNIK(h) (Homo sapiens, UniProt Q9UKE5); assay: Kinase selectivity panel; format: biochemical; conditions: read-out: Inhibition(%) @ 1 µM RK-019
T10 construct: purchased Eurofins Discovery Services (KinaseProfiler)
T10 sequence (Q9UKE5 whole entry): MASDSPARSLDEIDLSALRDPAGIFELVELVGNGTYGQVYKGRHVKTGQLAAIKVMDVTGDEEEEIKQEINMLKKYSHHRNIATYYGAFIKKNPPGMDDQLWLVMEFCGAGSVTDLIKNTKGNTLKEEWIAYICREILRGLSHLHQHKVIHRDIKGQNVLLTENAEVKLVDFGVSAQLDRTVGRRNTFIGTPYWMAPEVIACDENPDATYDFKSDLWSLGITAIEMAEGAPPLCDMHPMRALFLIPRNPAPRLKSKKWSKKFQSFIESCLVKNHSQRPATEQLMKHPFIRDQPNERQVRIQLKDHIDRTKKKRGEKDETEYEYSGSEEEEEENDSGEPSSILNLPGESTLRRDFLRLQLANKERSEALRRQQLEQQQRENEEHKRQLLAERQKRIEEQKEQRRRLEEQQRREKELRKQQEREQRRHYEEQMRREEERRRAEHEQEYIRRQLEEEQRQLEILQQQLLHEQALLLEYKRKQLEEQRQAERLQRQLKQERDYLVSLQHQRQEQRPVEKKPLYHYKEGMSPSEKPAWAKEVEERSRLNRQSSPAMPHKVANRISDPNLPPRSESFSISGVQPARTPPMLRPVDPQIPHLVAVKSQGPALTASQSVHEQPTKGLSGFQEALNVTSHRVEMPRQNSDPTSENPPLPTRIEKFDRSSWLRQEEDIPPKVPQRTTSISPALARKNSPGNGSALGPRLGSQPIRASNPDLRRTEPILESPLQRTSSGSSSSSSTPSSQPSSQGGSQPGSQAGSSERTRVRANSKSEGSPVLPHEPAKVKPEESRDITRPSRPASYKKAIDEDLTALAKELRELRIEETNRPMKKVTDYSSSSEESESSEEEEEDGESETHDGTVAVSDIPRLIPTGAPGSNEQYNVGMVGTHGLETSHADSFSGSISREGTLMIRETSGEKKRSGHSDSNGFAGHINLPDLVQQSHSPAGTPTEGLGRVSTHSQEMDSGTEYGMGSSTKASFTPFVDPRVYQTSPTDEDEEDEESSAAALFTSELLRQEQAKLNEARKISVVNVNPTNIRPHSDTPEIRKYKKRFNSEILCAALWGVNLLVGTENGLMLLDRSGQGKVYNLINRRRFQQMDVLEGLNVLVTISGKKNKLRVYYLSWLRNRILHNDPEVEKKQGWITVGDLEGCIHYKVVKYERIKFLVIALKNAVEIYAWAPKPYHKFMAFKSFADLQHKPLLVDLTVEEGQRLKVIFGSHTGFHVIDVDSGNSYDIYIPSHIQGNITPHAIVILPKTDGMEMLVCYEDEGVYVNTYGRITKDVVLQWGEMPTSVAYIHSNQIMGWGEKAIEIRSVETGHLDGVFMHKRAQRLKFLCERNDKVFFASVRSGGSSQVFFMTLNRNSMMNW
Method: as §3

Fms(h) = molecular target: T11, Fms(h) (Homo sapiens, UniProt P07333); assay: Kinase selectivity panel; format: biochemical; conditions: read-out: Inhibition(%) @ 1 µM RK-019
T11 construct: purchased Eurofins Discovery Services (KinaseProfiler)
T11 sequence (P07333 20-972): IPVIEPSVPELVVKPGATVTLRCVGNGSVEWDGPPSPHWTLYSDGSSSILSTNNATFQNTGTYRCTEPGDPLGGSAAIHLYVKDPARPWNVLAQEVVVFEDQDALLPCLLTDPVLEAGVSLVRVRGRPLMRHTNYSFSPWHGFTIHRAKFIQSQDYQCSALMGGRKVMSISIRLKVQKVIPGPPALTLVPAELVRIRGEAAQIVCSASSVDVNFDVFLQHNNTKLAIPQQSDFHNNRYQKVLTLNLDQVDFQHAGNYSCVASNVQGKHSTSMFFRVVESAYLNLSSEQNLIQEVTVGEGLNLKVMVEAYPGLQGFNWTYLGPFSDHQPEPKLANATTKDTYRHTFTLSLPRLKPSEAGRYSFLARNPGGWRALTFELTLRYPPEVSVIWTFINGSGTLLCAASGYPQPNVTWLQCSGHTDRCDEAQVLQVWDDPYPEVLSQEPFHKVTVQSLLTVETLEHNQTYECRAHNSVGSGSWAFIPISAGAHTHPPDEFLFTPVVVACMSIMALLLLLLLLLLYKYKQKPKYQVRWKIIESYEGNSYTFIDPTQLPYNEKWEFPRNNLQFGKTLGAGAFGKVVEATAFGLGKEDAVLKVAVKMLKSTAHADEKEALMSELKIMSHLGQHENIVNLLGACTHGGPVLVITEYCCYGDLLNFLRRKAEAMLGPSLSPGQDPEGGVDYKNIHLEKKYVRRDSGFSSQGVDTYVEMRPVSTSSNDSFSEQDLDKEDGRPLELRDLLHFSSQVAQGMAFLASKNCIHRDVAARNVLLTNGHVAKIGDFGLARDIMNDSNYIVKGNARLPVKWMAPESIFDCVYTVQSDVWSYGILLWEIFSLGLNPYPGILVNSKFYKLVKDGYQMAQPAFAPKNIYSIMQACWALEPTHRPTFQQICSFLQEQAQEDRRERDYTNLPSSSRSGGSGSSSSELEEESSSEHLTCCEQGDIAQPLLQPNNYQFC
Method: as §3

MYLK2(h) = molecular target: T12, MYLK2(h) (Homo sapiens, UniProt Q9H1R3); assay: Kinase selectivity panel; format: biochemical; conditions: read-out: Inhibition(%) @ 1 µM RK-019
T12 construct: purchased Eurofins Discovery Services (KinaseProfiler)
Method: as §3

GSK3α(h) = molecular target: T13, GSK3α(h) (Homo sapiens, UniProt P49840); assay: Kinase selectivity panel; format: biochemical; conditions: read-out: Inhibition(%) @ 1 µM RK-019
T13 construct: purchased Eurofins Discovery Services (KinaseProfiler)
Method: as §3

GCN2(h) = molecular target: T14, GCN2(h) (Homo sapiens, UniProt Q9P2K8); assay: Kinase selectivity panel; format: biochemical; conditions: read-out: Inhibition(%) @ 1 µM RK-019
T14 construct: purchased Eurofins Discovery Services (KinaseProfiler)
Method: as §3

Plk3(h) = molecular target: T15, Plk3(h) (Homo sapiens, UniProt Q9H4B4); assay: Kinase selectivity panel; format: biochemical; conditions: read-out: Inhibition(%) @ 1 µM RK-019
T15 construct: purchased Eurofins Discovery Services (KinaseProfiler)
T15 sequence (Q9H4B4 whole entry): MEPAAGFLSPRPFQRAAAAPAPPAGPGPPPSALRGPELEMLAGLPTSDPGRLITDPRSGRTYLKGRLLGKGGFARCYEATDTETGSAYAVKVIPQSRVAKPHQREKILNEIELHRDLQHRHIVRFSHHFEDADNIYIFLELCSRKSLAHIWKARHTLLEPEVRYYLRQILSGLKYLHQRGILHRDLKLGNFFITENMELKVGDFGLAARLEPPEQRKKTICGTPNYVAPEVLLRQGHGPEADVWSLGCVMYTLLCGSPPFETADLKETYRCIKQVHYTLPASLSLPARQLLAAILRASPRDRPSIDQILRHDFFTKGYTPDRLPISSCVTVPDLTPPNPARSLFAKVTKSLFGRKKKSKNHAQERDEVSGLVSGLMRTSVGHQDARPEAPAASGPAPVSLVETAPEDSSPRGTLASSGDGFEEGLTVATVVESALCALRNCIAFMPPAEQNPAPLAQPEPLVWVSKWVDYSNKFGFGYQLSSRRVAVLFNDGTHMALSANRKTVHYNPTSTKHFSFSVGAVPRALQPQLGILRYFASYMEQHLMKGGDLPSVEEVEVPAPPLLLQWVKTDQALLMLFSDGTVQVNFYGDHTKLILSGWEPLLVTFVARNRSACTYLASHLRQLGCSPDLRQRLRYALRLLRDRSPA
Method: as §3

Blk(m) = molecular target: T16, Blk(m) (Mus musculus, UniProt P16277); assay: Kinase selectivity panel; format: biochemical; conditions: read-out: Inhibition(%) @ 1 µM RK-019
T16 construct: purchased Eurofins Discovery Services (KinaseProfiler)
Method: as §3

GRK1(h) = molecular target: T17, GRK1(h) (Homo sapiens, UniProt Q15835); assay: Kinase selectivity panel; format: biochemical; conditions: read-out: Inhibition(%) @ 1 µM RK-019
T17 construct: purchased Eurofins Discovery Services (KinaseProfiler)
Method: as §3

IKKε(h) = molecular target: T18, IKKε(h) (Homo sapiens, UniProt Q14164); assay: Kinase selectivity panel; format: biochemical; conditions: read-out: Inhibition(%) @ 1 µM RK-019
T18 construct: purchased Eurofins Discovery Services (KinaseProfiler)
Method: as §3

Fes(h) = molecular target: T19, Fes(h) (Homo sapiens, UniProt P07332); assay: Kinase selectivity panel; format: biochemical; conditions: read-out: Inhibition(%) @ 1 µM RK-019
T19 construct: purchased Eurofins Discovery Services (KinaseProfiler)
Method: as §3

PKCε(h) = molecular target: T20, PKCε(h) (Homo sapiens, UniProt Q02156); assay: Kinase selectivity panel; format: biochemical; conditions: read-out: Inhibition(%) @ 1 µM RK-019
T20 construct: purchased Eurofins Discovery Services (KinaseProfiler)
T20 sequence (Q02156 whole entry): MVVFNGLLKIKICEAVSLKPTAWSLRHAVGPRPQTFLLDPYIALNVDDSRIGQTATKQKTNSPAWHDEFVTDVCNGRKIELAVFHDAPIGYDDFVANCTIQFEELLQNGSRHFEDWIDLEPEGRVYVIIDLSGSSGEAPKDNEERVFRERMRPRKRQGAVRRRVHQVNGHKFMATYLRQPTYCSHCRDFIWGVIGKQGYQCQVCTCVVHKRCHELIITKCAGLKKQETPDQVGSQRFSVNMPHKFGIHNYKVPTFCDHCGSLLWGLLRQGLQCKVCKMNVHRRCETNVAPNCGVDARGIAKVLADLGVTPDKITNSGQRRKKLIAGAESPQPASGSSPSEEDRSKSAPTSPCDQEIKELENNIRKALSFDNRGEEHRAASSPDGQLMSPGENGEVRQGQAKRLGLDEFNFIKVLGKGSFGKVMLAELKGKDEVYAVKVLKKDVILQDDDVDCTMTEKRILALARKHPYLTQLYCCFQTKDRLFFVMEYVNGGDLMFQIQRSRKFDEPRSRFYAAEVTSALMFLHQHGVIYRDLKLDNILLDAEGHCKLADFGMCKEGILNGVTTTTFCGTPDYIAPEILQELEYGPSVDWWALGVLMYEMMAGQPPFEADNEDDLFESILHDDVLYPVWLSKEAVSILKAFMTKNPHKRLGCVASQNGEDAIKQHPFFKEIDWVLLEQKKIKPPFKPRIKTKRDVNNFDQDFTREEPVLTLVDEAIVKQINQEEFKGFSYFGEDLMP
Method: as §3

EphA2(h) = molecular target: T21, EphA2(h) (Homo sapiens, UniProt P29317); assay: Kinase selectivity panel; format: biochemical; conditions: read-out: Inhibition(%) @ 1 µM RK-019
T21 construct: purchased Eurofins Discovery Services (KinaseProfiler)
Method: as §3

COc1cc(OC)cc(N(CCN[C@H](C)CO)c2ccc3ncc(-c4cnn(C)c4)c(=O)n3c2)c1 [RK-019, (R)-7-((3,5-dimethoxyphenyl) (2-((1-hydroxypropan-2-yl)amino)ethyl)amino)-3-(1-methyl-1H-pyrazol-4-yl)-4H-pyrido [1,2-a]pyrimidin-4-one]
G0/G1 proportion (KATO III cells [1]): 67.88% | IC50 (SNU-16 cells): 3.96 ± 4.4 nM | IC50 (KATO III cells [2]): 5.45 ± 5.3 nM | activity at 1 µM (CSK(h)): 94% | activity at 1 µM (Abl(m)): 17% | activity at 1 µM (CDK1/cyclinB(h)): 99% | activity at 1 µM (CDKL2(h)): 110% | activity at 1 µM (CaMKIß(h)): 97% | activity at 1 µM (PRAK(h)): 95% | activity at 1 µM (Abl (H396P) (h)): 49% | activity at 1 µM (MKK6(h)): 83% | activity at 1 µM (MSK2(h)): 101% | activity at 1 µM (TNIK(h)): 42% | activity at 1 µM (Fms(h)): 16% | activity at 1 µM (MYLK2(h)): 88% | activity at 1 µM (GSK3α(h)): 85% | activity at 1 µM (GCN2(h)): 134% | activity at 1 µM (Plk3(h)): 101% | activity at 1 µM (Blk(m)): 53% | activity at 1 µM (GRK1(h)): 94% | activity at 1 µM (IKKε(h)): 107% | activity at 1 µM (Fes(h)): 106% | activity at 1 µM (PKCε(h)): 88% | activity at 1 µM (EphA2(h)): 61%
